From PubChem BioAssay (NCI) come the findings set out here.

Each structure is given as a SMILES string.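 Cells were grown in 96-well plates and exposed to each compound for 48 hours at five concentrations; endpoints were interpolated linearly between bracketing concentrations, or set to the highest concentration if not reached. GI50 marks 50% less growth. TGI is the concentration that stops growth completely.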

Among the test systems are ACHN renal; SNB-75 CNS; OVCAR-3 ovarian; NCI-H460 lung; SR leukemia; SF-268 CNS; PC-3 prostate; HS 578T breast; MDA-MB-435; MDA-MB-231 breast.
Common to all, as to test: growth of human tumour cells (NCI), 48 h

Regarding `O=C(/C=C/c1ccccc1O)c1ccccc1Cl`, the TGI was more than 100 µM in the test with ACHN renal; 68.8 µM with SNB-75 CNS; more than 100 µM in the test on OVCAR-3 ovarian; more than 100 µM in the test on NCI-H460 lung; 76.5 µM in the test on SR leukemia; more than 100 µM in the test with SF-268 CNS.

As for `CCc1ccc2c(c1)N(CCO)C1=C(C(=O)OC1)C2c1cc(OC)c(OC)c(OC)c1` (centres undefined), the GI50 is 0.389 µM in the test on ACHN renal; 0.134 µM with SNB-75 CNS; 0.112 µM in the test on OVCAR-3 ovarian; 0.196 µM with PC-3 prostate; 0.178 µM in the test on NCI-H460 lung; 0.187 µM in the test on SR leukemia. The GI50 in the test with SF-268 CNS is 0.3 µM; in the test with HS 578T breast, 0.218 µM. Further, the TGI with ACHN renal is more than 50 µM; in the test with SNB-75 CNS, more than 50 µM; in the test on OVCAR-3 ovarian it was 0.274 µM; in the test on PC-3 prostate it was more than 50 µM; in the test with NCI-H460 lung it was 7.62 µM; in the test on SR leukemia it was more than 50 µM. Also, the TGI in the test with SF-268 CNS is more than 19.8 µM; with HS 578T breast it was more than 50 µM.

For the compound `CC1(C)OC(=O)C(=C2CCC(C(=O)Nc3cccc(C(F)(F)F)c3)N2)C(=O)O1` (centres undefined), the TGI in the test with ACHN renal, in the test with SNB-75 CNS, in the test with OVCAR-3 ovarian, with NCI-H460 lung and in the test with SF-268 CNS was more than 100 µM each time.

With `COc1cc2c(c(OC)c1OC)C(=O)NCCC2`, the TGI with ACHN renal, in the test on SNB-75 CNS, in the test with OVCAR-3 ovarian, in the test with NCI-H460 lung, with SR leukemia and with SF-268 CNS was more than 100 µM throughout.

As for `OCC(O)C(O)C(O)c1nn(-c2ccc(F)cc2)c2nc3cc(Cl)c(Cl)cc3nc12` (centres undefined), the TGI in the test with SNB-75 CNS came to 13.2 µM; in the test on OVCAR-3 ovarian, 49.5 µM; in the test on NCI-H460 lung, 82.1 µM; in the test on SF-268 CNS, 43.3 µM.

Turning to `C=C1CC[C@H]2C(C)=CC[C@H]3C(=C)C(=O)O[C@@H]3[C@@H]12`, the TGI in the test with ACHN renal, in the test on PC-3 prostate, with MDA-MB-435, with NCI-H460 lung, in the test on SR leukemia and with MDA-MB-231 breast was more than 100 µM in each case.

Turning to `Cc1ccc(S(=O)C(C)C(Cl)c2ccccc2)cc1` (centres undefined), the TGI with ACHN renal, with SNB-75 CNS, in the test with OVCAR-3 ovarian, with NCI-H460 lung, in the test on SR leukemia and in the test with SF-268 CNS was more than 100 µM in each case.

`N#Cc1cc(S(=O)(=O)Nc2nc3cc(Cl)ccc3o2)c(SCc2ccccc2)cc1Cl`: the GI50 with ACHN renal is 13.9 µM; with OVCAR-3 ovarian, 13.5 µM; with PC-3 prostate, 15.1 µM; in the test with MDA-MB-435, 16.2 µM; with NCI-H460 lung, 15.3 µM; in the test with SR leukemia it was 15.2 µM. The GI50 in the test on MDA-MB-231 breast was 10.7 µM; in the test with SF-268 CNS it was 14.7 µM. Besides, the TGI with ACHN renal was determined as 26.8 µM; with OVCAR-3 ovarian it was 26.4 µM; in the test with PC-3 prostate, 28.3 µM; in the test with MDA-MB-435, 29.7 µM; in the test with NCI-H460 lung it was 28.6 µM; with SR leukemia it was 28.5 µM. Further, the TGI in the test with MDA-MB-231 breast worked out at 22.5 µM; in the test with SF-268 CNS, 32.2 µM.

As to `COc1ccc(Br)c(C(=O)N2CCc3ccccc32)c1N`, the TGI in the test with ACHN renal is more than 100 µM; in the test with SNB-75 CNS, 90.3 µM; in the test on OVCAR-3 ovarian, 66.2 µM; with NCI-H460 lung it was more than 100 µM; in the test with SR leukemia it was 79.1 µM.

For `O=NNc1ccc(S(=O)(=O)c2ccc3ccccc3c2)cn1`, the TGI with ACHN renal, with SNB-75 CNS, with OVCAR-3 ovarian, in the test on PC-3 prostate, with NCI-H460 lung and in the test on SR leukemia was more than 100 µM throughout. In addition, the TGI in the test with MDA-MB-231 breast, in the test with SF-268 CNS and in the test with HS 578T breast was more than 100 µM each time.

In the case of `COc1ccc(C2=Nn3c(nnc3-n3nc(C)cc3C)SC2)cc1`, the GI50 was 0.0781 µM in the test with ACHN renal; 0.0214 µM in the test on SNB-75 CNS; 0.0346 µM with OVCAR-3 ovarian; 0.0453 µM in the test on PC-3 prostate; 0.0518 µM with NCI-H460 lung; 0.0242 µM in the test with SR leukemia. Moreover, the GI50 in the test on MDA-MB-231 breast was 0.177 µM; in the test with SF-268 CNS, 0.0806 µM. Moreover, the TGI with ACHN renal was more than 100 µM; in the test on OVCAR-3 ovarian, 0.114 µM; in the test with PC-3 prostate it was more than 100 µM; with NCI-H460 lung, more than 100 µM; in the test with SR leukemia, more than 100 µM; in the test with MDA-MB-231 breast, more than 100 µM. Moreover, the TGI with SF-268 CNS and in the test with HS 578T breast was more than 100 µM throughout.

Take `O=C(O)CSc1n[nH]c(-c2ccco2)n1`: the TGI with ACHN renal, in the test on SNB-75 CNS, in the test on OVCAR-3 ovarian and with NCI-H460 lung was more than 100 µM in each case.

In the case of `N#CCc1cccc(CC#N)c1Br`, the TGI in the test with ACHN renal, in the test with SNB-75 CNS, with OVCAR-3 ovarian, with NCI-H460 lung, in the test on SR leukemia and in the test with SF-268 CNS was more than 100 µM each time.

Regarding `COc1cc(-c2nn(-c3cccc(NC(=O)CCN4CCN(c5ccccc5)CC4)c3)cc2-c2ccncc2)ccc1Cl`, the GI50 in the test on ACHN renal was 2.67 µM; with SNB-75 CNS it was 4.13 µM; with OVCAR-3 ovarian, 2.68 µM; in the test with PC-3 prostate, 3.1 µM; with MDA-MB-435, 2.57 µM; in the test on NCI-H460 lung, 3.11 µM. The results for the GI50 in the test with MDA-MB-231 breast, in the test with SF-268 CNS and with HS 578T breast were 2.28 µM, 3.56 µM and 4.61 µM, respectively. The TGI in the test on ACHN renal was more than 100 µM; with SNB-75 CNS, more than 100 µM; with OVCAR-3 ovarian, 9.73 µM; in the test on PC-3 prostate, more than 100 µM; with MDA-MB-435, 13 µM; in the test on NCI-H460 lung, 31.3 µM. In addition, the TGI with MDA-MB-231 breast was 7.91 µM; with SF-268 CNS, more than 100 µM; in the test on HS 578T breast, more than 100 µM.

As to `Nc1ccccc1C#Cc1ccccc1C#Cc1cccs1`, the GI50 is 18.7 µM in the test with ACHN renal; 82.7 µM in the test with SNB-75 CNS; 13.1 µM in the test on OVCAR-3 ovarian; 13.8 µM in the test with PC-3 prostate; 4.03 µM with MDA-MB-435; 37.3 µM with NCI-H460 lung. Also, the GI50 is 11.8 µM in the test with MDA-MB-231 breast and 20.4 µM in the test on SF-268 CNS. For the same compound, the TGI with ACHN renal was 39.4 µM; in the test on SNB-75 CNS, more than 100 µM; with OVCAR-3 ovarian, 26.4 µM; in the test with PC-3 prostate it was 33 µM; in the test with MDA-MB-435, 14.3 µM; in the test on NCI-H460 lung, more than 100 µM. For the same compound, the TGI was determined as 28.2 µM in the test with MDA-MB-231 breast and 42.8 µM with SF-268 CNS.
